# Measurements from patent US9493479B2 (Merck Sharp & Dohme Corp., priority 2013, dated 2016).
# Where a name gives a salt, the structure may show the parent alone.
# Experiments:
# HIV-1 (NL4-3 strain) = experiment: ViKinG (Viral Kinetics GFP Reporter) assay for inhibition of HIV replication; format: cell-based; conditions: MT4-GFP cells infected with HIV-1 NL4-3, RPMI + 10% or 50% NHS (not given), infected cells at 48 h / 24 h
# Source text: The ViKinG (Viral Kinetics GFP Reporter) assay is an in vitro kinetic assay that employs the MT4-gag-GFP reporter cell line (Wang et al., “Assessment of the susceptibility of mutant HIV-1 to antiviral agents.” J Virological Methods 165:230-37 (2010)) to quantify the number of new cells infected in each round of replication. The purpose of the ViKinG assay is to identify agents that inhibit HIV progression. Briefly, HIV infection results in tat transactivation of the stably expressed HIV LTR promoter to drive gagGFP expression. Thus, an increase in the number of GFP-MT4 cells results following HIV infection.
# MT4-GFP cells (250,000 cells/m1) were bulk-infected with HIV-1 (NL4-3 strain) at low multiplicity of infection (MOT) in RPMI+10% FBS for 24 hours. Cells were then washed once in RPMI+10% FBS and resuspended RPMI+10% or 50% normal human serum (NHS). Test compounds were serial-diluted in DMSO on an ECHO® liquid handling platform (Labcyte Corp., Sunnyvale, Calif.), along with a triple drug control (integrase, protease and NNRTI compounds). The infected MT4-GFP cells were added to a 384-well poly-D-lysine coated black plate with clear bottom in which the diluted test compounds were placed. The cells were seeded at 8,000 cells per well and the final DMSO concentration was 0.4%. The infected cells (Green GFP cells) were quantified at both 24 and 48 hours post incubation using Acumen® eX3 (TTP Labtech Ltd., Hertfordshire, United Kingdom). Viral reproductive ratio (R0) was determined using the number of infected cells at 48 hours divided by the number of infected cells at 24 hours. Percent viral growth inhibition was calculated by [1−(R−Rtripledrug)/(RDMSO−Rtripledrug)]*100. Compound potency IP or IC50 was determined by a 4-parameter dose response curve analysis.
# WT-Integrase = molecular target: T1, WT-Integrase (Human immunodeficiency virus type 1 group M subtype B, UniProt P04585); experiment: InSTANT integrase DNA strand transfer functional assay; format: biochemical, HIV; conditions: SPA strand transfer, 15 minutes at 37° C.
# T1 construct: assembled PVT SPA beads with WT-Integrase and boitinylated DNA
# Description: InSTANT is an integrase DNA strand transfer functional assay used to determine potency of InSTIs, which was carried out as described below. 8 μl of SPA buffer (27.8 mM Hepes, 27.8 mM MgCl2, 111.1 μg/mL BSA, 5.56 mM βME, and 57.1 mM NaCl) containing 5 nM 3H-labeled target DNA (prepared separately) and 10 μl of assembled PVT SPA beads with WT-Integrase and boitinylated DNA (prepared separately) were added to the assay plate which contained 0.4 μl of test compound(s) or positive or negative control compound(s) per well. The assay plate was shaken for 1 minute on HT-91002 1.0 MM shaker and then was sealed and incubated for 15 minutes at 37° C. The assay reaction was quenched by adding 4 μl of 1.25 M EDTA to each well of the assay plate with mixing. After incubating the plate at room temperature for 1 hour, the quenched plate was spun at 200 g for 1 minute and read on TopCount (1 minute per well). Percent inhibition was calculated by [1−(Sample−Min)/(Max−Min)]*100. Compound potency IP or IC50 was determined by a 4-parameter dose response curve analysis.
# [1] = Human immunodeficiency virus 1, NL43
Structure (SMILES),IC50 (HIV-1 (NL4-3 strain)) [nM],IC50 (HIV-1 (NL4-3 strain); [1]) [nM],IC50 (WT-Integrase) [nM]
"O=C1c2c(O)c(=O)c3c(n2CCN1Cc1ccc(F)cc1)COCCCC3 [Compound 9, 10-(4-fluorobenzyl)-8-hydroxy-3,4,5,6,11,12-hexahydrooxocino[4,3′:5,6]pyrido[1,2-a]pyrazine-7, 9(1H, 1 OH)-dione]",961,–,–
"CC1=CCOCc2c1c(=O)c(O)c1n2CCN(Cc2ccc(F)c(Cl)c2)C1=O [Compound 4, 9-(3-chloro-4-fluorobenzyl)-7-hydroxy-5-methyl-10,11-dihydro-1H-oxepino[4′,3′:5,6]pyrido[1,2-a]pyrazine-6,8(3H,9H)-dione]",–,91,18
"CN1C/C=C\Cc2c(n3c(c(O)c2=O)C(=O)N(Cc2ccc(F)c(Cl)c2)CC3)C1=O [Compound 23, (Z)-10-(3-chloro-4-fluorobenzyl)-8-hydroxy-2-methyl-2,3,11,12-tetrahydro-1H-pyrazino[1′,2′:1,6]pyrido[2,3-c]azocine-1,7,9(6H,10H)-trione]",–,273,–
"C/C=C1\COCc2c1c(=O)c(O)c1n2CCN(Cc2ccc(F)c(Cl)c2)C1=O [Compound 5, (Z)-8-(3-chloro-4-fluorobenzyl)-4-ethylidene-6-hydroxy-3,4,9,10-tetrahydropyrano[4′,3′:5,6]pyrido[1,2-a]pyrazine-5,7(1H,8H)-dione]",–,183,–
"O=C1c2c(O)c(=O)c3c(n2CCN1Cc1ccc(F)c(Cl)c1)COCCC3 [Compound 1, 9-(3-chloro-4-fluorobenzyl)-7-hydroxy-4,5,10,11-tetrahydro-1H-oxepino[4′,3′:5,6]pyrido[1,2-a]pyrazine-6,8(3H,9H)-dione]",–,347,58
"Cc1cn(C)c(=O)c2c1c(=O)c(O)c1n2CCN(Cc2ccc(F)c(Cl)c2)C1=O [Compound 22, 8-(3-chloro-4-fluorobenzyl)-6-hydroxy-2,4-dimethyl-9,10-dihydro-1H-pyrazino[1,2-a][1,7]naphthyridine-1,5,7(2H,8H)-trione]",–,456,1
"O=C1c2c(O)c(=O)c3c(n2CCN1Cc1ccc(F)c(Cl)c1)COC31C=CCCC1 (centres unmarked) [Compound 15, 7′-(3-chloro-4-fluorobenzyl)-5′-hydroxy-8′,9′-dihydrospiro[cyclohex[2]ene-1,3′-furo[3′,4′:5,6]pyrido[1,2-a]pyrazine]-4′,6′(1′H,7′H)-dione]",–,401,–
"O=C1c2c(O)c(=O)c3c(n2CCN1Cc1ccc(F)c(Cl)c1)COC31C=CCC1 (centres unmarked) [Compound 12, 7′-(3-chloro-4-fluorobenzyl)-5′-hydroxy-8′,9′-dihydrospiro[cyclopent[2]ene-1,3′-furo[3′,4′:5,6]pyrido[1,2-a]pyrazine]-4′,6′(1′H,7′H)-dione]",1020,–,–
O=C1c2c(O)c(=O)c3c(n2CCN1Cc1ccc(F)c(Cl)c1)COC31CCC2CC21 (centres unmarked) [Compound 13],–,333,8
"C=C1COCc2c1c(=O)c(O)c1n2CCN(Cc2ccc(F)c(Cl)c2)C1=O [Compound 11, 8-(3-chloro-4-fluorobenzyl)-6-hydroxy-4-methylene-3,4,9,10-tetrahydropyrano[4′,3′:5,6]pyrido[1,2-a]pyrazine-5,7(1H,8H)-dione]",–,298,–
"CC(C)c1c(C(=O)N(C)C)n2c(c(O)c1=O)C(=O)N(Cc1ccc(F)c(Cl)c1)CC2 [Compound 19, 2-(3-chloro-4-fluorobenzyl)-9-hydroxy-7-isopropyl-N,N-dimethyl-1,8-dioxo-2,3,4,8-tetrahydro-1H-pyrido[1,2-a]pyrazine-6-carboxamide]",–,82,10
"CC1CC12COCc1c2c(=O)c(O)c2n1CCN(Cc1ccc(F)c(Cl)c1)C2=O (centres unmarked) [Compound 8, 8′-(3-chloro-4-fluorobenzyl)-6′-hydroxy-2-methyl-9′,10′-dihydro-1′H-spiro[cyclopropane-1,4′-pyrano[4′,3′:5,6]pyrido[1,2-a]pyrazine]-5′,7′(3′H,8′H)-dione]",–,507,28
"C=C1CCN(C(=O)C(=O)N(C)C)Cc2c1c(=O)c(O)c1n2CCN(Cc2ccc(F)c(Cl)c2)C1=O [Compound 17, 2-(9-(3-chloro-4-fluorobenzyl)-7-hydroxy-5-methylene-6,8-dioxo-4,5,8,9,10,11-hexahydropyrazino[1′,2′:1,6]pyrido[2,3-c]azepin-2(1H,3H,6H)-yl)-N,N-dimethyl-2-oxoacetamide]",–,> 4200,–
"CC(C)c1c(CNC(=O)c2ccon2)n2c(c(O)c1=O)C(=O)N(Cc1ccc(F)c(Cl)c1)CC2 [Compound 10, N-((2-(3-chloro-4-fluorobenzyl)-9-hydroxy-7-isopropyl-1,8-dioxo-2,3,4,8-tetrahydro-1H-pyrido[1,2-a]pyrazin-6-yl)methyl)isoxazole-3-carboxamide]",–,406,–
CCC1COCc2c1c(=O)c(O)c1n2CCN(Cc2ccc(F)cc2)C1=O (centres unmarked) [Compound 6],–,492,21
C=C1CCN(C(=O)CN(C)C)Cc2c1c(=O)c(O)c1n2CCN(Cc2ccc(F)c(Cl)c2)C1=O [Compound 29],–,> 4200,–
"CCc1cn(C)c(=O)c2c1c(=O)c(O)c1n2CCN(Cc2ccc(F)c(Cl)c2)C1=O [Compound 24, 8-(3-chloro-4-fluorobenzyl)-4-ethyl-6-hydroxy-2-methyl-9,10-dihydro-1H-pyrazino[1,2-a][1,7]naphthyridine-1,5,7(2H,8H)-trione]",–,1120,–
"CC1CCNCc2c1c(=O)c(O)c1n2CCN(Cc2ccc(F)c(Cl)c2)C1=O (centres unmarked) [Compound 16, 9-(3-chloro-4-fluorobenzyl)-7-hydroxy-5-methyl-2,3,4,5,10,11-hexahydropyrazino[1′,2′:1,6]pyrido[2,3-c]azepine-6,8(1H,9H)-dione trifluoroacetate salt]",–,487,–
C=C(C)C1COCc2c1c(=O)c(O)c1n2CCN(Cc2ccc(F)c(Cl)c2)C1=O (centres unmarked) [Compound 26],–,272,–
"O=C1c2c(O)c(=O)c3c(n2CCN1Cc1ccc(F)c(Cl)c1)COC31CCCC1O (centres unmarked) [Compound 14, 7′-(3-chloro-4-fluorobenzyl)-2,5′-dihydroxy-8′,9′-dihydrospiro[cyclopentane-1,3′-furo[3′,4′:5,6]pyrido[1,2-a]pyrazine]-4′,6′(1′H,7′H)-dione]",–,144,12
"CC(C)c1c(CN)n2c(c(O)c1=O)C(=O)N(Cc1ccc(F)c(Cl)c1)CC2 [Compound 32, 6-(aminomethyl)-2-(3-chloro-4-fluorobenzyl)-9-hydroxy-7-isopropyl-3,4-dihydro-1H-pyrido[1,2-a]pyrazine-1,8(2H)-dione trifluoroacetate salt]",–,151,14
"O=C1c2c(O)c(=O)c3c(n2CCN1Cc1ccc(F)c(Cl)c1)COCC1CC31 (centres unmarked) [Compound 3, 2-(3-chloro-4-fluorobenzyl)-11-hydroxy-3,4,8,8a,9,9a-hexahydrocyclopropa[5′,6]oxepino[4′,3′:5,6]pyrido[1,2-a]pyrazine-1,10(2H,6H)-dione]",–,241,–
"C=C1CN(C)C(=O)c2c1c(=O)c(O)c1n2CCN(Cc2ccc(F)c(Cl)c2)C1=O [Compound 21, 8-(3-chloro-4-fluorobenzyl)-6-hydroxy-2-methyl-4-methylene-3,4,9,10-tetrahydro-1H-pyrazino[1,2-a][1,7]naphthyridine-1,5,7(2H,8H)-trione]",–,155,2
"CC(C)c1c(C(=O)N(C)C)n2c(c(O)c1=O)C(=O)N(Cc1ccc(F)cc1)CC2 [Compound 20, 2-(4-fluorobenzyl)-9-hydroxy-7-isopropyl-N,N-dimethyl-1,8-dioxo-2,3,4,8-tetrahydro-1H-pyrido[1,2-a]pyrazine-6-carboxamide]",–,286,20
CC(C)C1COCc2c1c(=O)c(O)c1n2CCN(Cc2ccc(F)cc2)C1=O (centres unmarked) [Compound 27],–,672,–
CC1CCN(C(=O)CN(C)C)Cc2c1c(=O)c(O)c1n2CCN(Cc2ccc(F)c(Cl)c2)C1=O (centres unmarked) [Compound 30],–,3250,–
C=C1CCOCc2c1c(=O)c(O)c1n2CCN(Cc2ccc(F)c(Cl)c2)C1=O [Compound 28],–,503,–
